In PMC8899820, “Pharmacokinetics, Tissue Distribution, and Excretion Characteristics of a Radix Polygoni Multiflori Extract in Rats” (Frontiers in Pharmacology, 2022):
Where two headings read alike, the source gives them in different places.

Experiments:
[1] = RPM extract 36 g/kg p.o., rat plasma, Mean ± SD, n = 6; ref Cheng et al., 2020; cited from earlier work
[2] = no source given; cited from earlier work
[3] = Tissue distribution of RPM constituents after oral RPM extract; conditions: Sprague-Dawley, rat, po, 18 g/kg
Description: For the tissue distribution study, 18 rats were randomly divided into three groups (n = 6, each) and orally administered 18 g/kg RPM extract. The rats under isoflurane anesthesia were sacrificed by bleeding from the abdominal aorta at 5, 15, and 60 min (six rats per time point) after gavage with 18 g/kg RPM extract. Subsequently, the heart, liver, spleen, lung, kidney, brain, stomach, small intestine, bladder, and gonads (testes of male rats, and uterus and ovaries of female rats) were immediately collected. An accurately weighed amount of fresh tissue sample (0.25 g) was individually homogenized with normal saline (1 ml) and transferred (50 μL) as a tissue homogenate to 1.5 ml centrifuge tubes for use as the tissue samples. All tissue samples were stored at −70°C until analysis.
Samples were prepared using the protein precipitation process. […] The tissue samples were homogenized in four parts of ice-cold 0.9% saline solution and then centrifuged at 4°C and 12,000 × g for 10 min to obtain tissue homogenates. […] Tissue homogenate, urine, bile and fecal samples were subjected to a similar process as the rat plasma samples.
For the tissue distribution study, 18 rats were randomly divided into three groups (n=6, each), and orally administered with 18 g/kg RPM extract. The rats were sacrificed at 5, 15, 60 min after orally administering RPM. Subsequently, the heart, liver, spleen, lung, kidney, brain, stomach, small intestine, bladder, gonad (testes of male rats, uterus and ovaries of female rats) were immediately collected. An accurately weighed amount of fresh tissue sample (0.25 g) was individually homogenized with normal saline (1 mL) and transferred (50 μL) as a tissue homogenate to 1.5 mL centrifuge tubes for use as the tissue samples.

[4] = Plasma pharmacokinetics of RPM constituents after oral RPM extract; conditions: for time at which C max was exhibited: RPM extract p.o.; for AUC(0-inf) / AUC(0-t) / Cmax / MRT inf / Tmax / half-life: Sprague-Dawley, rat, plasma, po
Excerpt: For the pharmacokinetic (PK) study, three groups (n = 6 each) of rats were orally administered RPM extract (6, 18, and 36 g/kg). In the plasma pharmacokinetics experiment, doses were 6, 18, and 36 g/kg for the single administration group and 18 g/kg for the continuous administration group. The doses were set at a subtoxic level ([Zhang et al., 2013]; [Wang et al., 2015]) to investigate the pharmacokinetic profiles of the constituents of RPM (36 g/kg group) and were approximately 60 times the upper dose (6 g/day) for humans recommended by the 2020 edition of Chinese Pharmacopoeia ([Chinese Pharmacopoeia Commission, 2020]), which was converted to a dose for rats based on body surface area conversion ([Reagan-Shaw et al., 2008]). In addition, the low and medium doses decreased in a certain proportion. Serial blood samples (∼120 μL; before dosing and at 5, 15, and 30 min, and 1, 2, 4, 6, 8, 12, and 24 h after administration) were collected in heparinized tubes from the orbital sinus under light isoflurane. The blood samples were centrifuged at 12000 g for 2 min, and the plasma fractions were decanted and frozen at −70°C until analysis.
Samples were prepared using the protein precipitation process. Rat plasma (50 μL) spiked with 10 μL of IS (puerarin 100 ng/ml) was extracted with 150 μL acetonitrile. After vortex shaking for 5 min and centrifugation at 14,000 g for 5 min, 150 μL of the organic layer was transferred to a clean tube and evaporated to dryness at 25°C under a stream of nitrogen. The residue was reconstituted in 50 μL of the initial mobile phase and subjected to another round of centrifugation at 14,000 g for 5 min, and 5 μL of the supernatant was injected for LC–MS/MS analysis.
The analysis was performed on an AB Sciex API 5500 Q Trap mass spectrometer (Toronto, Canada), interfaced with a Waters Acquity UPLC separation module.
(§1) The pharmacokinetic parameters, including the area under the plasma concentration-time curve from time zero to time t (AUC0-t) to time infinity (AUC0-∞), the time to reach the maximum plasma concentration (T max), the elimination half-time (t 1/2), and the maximum plasma concentration (C max), were calculated using the pharmacokinetic software Phoenix® WinNonlin®, version 7.0 (Scientific Consulting Inc., Apex, NC, United States). Data are expressed as the mean ± standard deviation (SD) for each group. The dose-exposure relationship was evaluated by the power function model combined with the confidence interval method ([Smith et al., 2000]; [Sethuraman et al., 2007]; [Hummel et al., 2009]). First, the administration dose, AUC0-∞ and C max were logarithmically transformed, and then a linear regression was performed to obtain the curve correlation coefficient (R^2), slope and 90% confidence interval (90% CI).

[5] = Biliary excretion in bile duct drained rats after oral RPM extract; conditions: single p.o. RPM extract 18 g/kg, rat bile
Description: (§2) For the excretion study, the rats were housed singly in metabolic cages with urine collection tubes kept at 4 °C during sample collection. Urine and fecal samples were collected at time intervals of 0–4, 4–8, 8–24, 24–32, and 32–48 h after a single dose of RPM extract at 18 g/kg and then weighed. Another six rats were anesthetized with pentobarbital, fixed in the supine position and subjected to bile duct drainage surgery, and the abdominal wound was sutured. Blank bile samples were collected before the administration of RPM. The rats were weighed, and the state of the rats was observed. Subsequently, they were orally administered 18 g/kg RPM extract. The bile samples were collected at time intervals of 0–1, 1–2, 2–4, 4–6, 6–8, 8–24, 24–32 and 32–48 h. The urine, feces, and bile samples were stored at −70°C until use.
(§3) Samples were prepared using the protein precipitation process. […] After vortex shaking for 5 min and centrifugation at 14,000 g for 5 min, 150 μL of the organic layer was transferred to a clean tube and evaporated to dryness at 25°C under a stream of nitrogen. The residue was reconstituted in 50 μL of the initial mobile phase and subjected to another round of centrifugation at 14,000 g for 5 min, and 5 μL of the supernatant was injected for LC–MS/MS analysis. […] Urine and bile samples were centrifuged at 4°C and 12,000 × g for 15 min. Fecal samples were homogenized in 0.9% saline and then centrifuged at 4°C and 12,000 × g for 15 min to gather the fecal homogenates. Tissue homogenate, urine, bile and fecal samples were subjected to a similar process as the rat plasma samples.
(§4) For the excretion study, 6 rats were placed in metabolic cage after orally administered with 18 g/kg RPM extract, and urine, feces samples were collected at time intervals of 0–4, 4–8, 8–24, 24–32, 32–48, 48–60, and 60–72 h. Another 6 rats were anesthetized with pentobarbital, fixed in the supine position and performed bile duct drainage operation, and the abdominal wound was sutured. […] Subsequently, they were orally administered with 18 g/kg RPM extract. The bile samples were collected at time intervals of 0–1, 1–2, 2–4, 4–6, 6–8, 8–24, 24–32 and 32–48 h. The urine, feces, and bile samples were stored at −70 °C until use.

[6] = Excretion into urine and feces and mass balance after oral RPM extract; conditions: for dose excreted: Sprague-Dawley, rat, po; for cumulative excretion into feces: rat feces
Description: as §2, §3, §4

[7] = Dose-exposure relationship (power function model with confidence interval method)
Description: as §1

[8] = parameters: method as in Wang P. et al., 2011; conditions: ref Wang P. et al., 2011, cited from earlier work
[9] = both, bladder, AUC0-t in bladder, rat tissue: bladder, 18 g/kg RPM extract p.o., tissues collected at 5, 15, 60 min
[10] = both, brain, AUC0-t in brain, rat tissue: brain, 18 g/kg RPM extract p.o., tissues collected at 5, 15, 60 min
[11] = both, heart, AUC0-t in heart, rat tissue: heart, 18 g/kg RPM extract p.o., tissues collected at 5, 15, 60 min
[12] = both, intestine, AUC0-t in intestine, rat tissue: intestine, 18 g/kg RPM extract p.o., tissues collected at 5, 15, 60 min
[13] = both, kidney, AUC0-t in kidney, rat tissue: kidney, 18 g/kg RPM extract p.o., tissues collected at 5, 15, 60 min
[14] = both, liver, AUC0-t in liver, rat tissue: liver, 18 g/kg RPM extract p.o., tissues collected at 5, 15, 60 min
[15] = both, lung, AUC0-t in lung, rat tissue: lung, 18 g/kg RPM extract p.o., tissues collected at 5, 15, 60 min
[16] = both, spleen, AUC0-t in spleen, rat tissue: spleen, 18 g/kg RPM extract p.o., tissues collected at 5, 15, 60 min
[17] = both, stomach, AUC0-t in stomach, rat tissue: stomach, 18 g/kg RPM extract p.o., tissues collected at 5, 15, 60 min
[18] = female, ovary, AUC0-t in ovary, rat tissue: ovary, 18 g/kg RPM extract p.o., tissues collected at 5, 15, 60 min
[19] = female, uterus, AUC0-t in uterus, rat tissue: uterus, 18 g/kg RPM extract p.o., tissues collected at 5, 15, 60 min
[20] = male, testis, AUC0-t in testis, rat tissue: testis, 18 g/kg RPM extract p.o., tissues collected at 5, 15, 60 min
[21] = feces, Recovery in feces (%), mass balance, 18 g/kg RPM extract p.o., feces collected 0–72 h
[22] = urine and feces, Recovery in urine and feces (%), mass balance, 18 g/kg RPM extract p.o., urine plus feces, 0–72 h
[23] = urine, Recovery in urine (%), mass balance, 18 g/kg RPM extract p.o., urine collected 0–72 h
[24] = single p.o. RPM extract 18 g/kg
[25] = single p.o. RPM extract 18 g/kg, rat urine
[26] = AUC0-∞ vs p.o. dose of RPM extract, critical interval 0.88–1.12
[27] = C max vs p.o. dose of RPM extract, critical interval 0.80–1.20
[28] = log AUC0-∞ vs log p.o. dose of RPM extract, critical interval 0.88–1.12
[29] = log C max vs log p.o. dose of RPM extract, critical interval 0.80–1.20

SMILES	AUC0-∞ [1]	AUC(0-t) [1]	Cmax [1]	AUC(0-t) [3, 9]	AUC(0-t) [3, 11]	AUC(0-t) [3, 13]	AUC(0-t) [3, 14]	AUC(0-t) [3, 15]	AUC(0-t) [3, 16]	AUC(0-t) [3, 17]	AUC(0-t) [3, 18]	AUC(0-t) [3, 19]	AUC(0-inf) ([4]; 6 g/kg)	AUC(0-t) ([4]; 6 g/kg)	Cmax ([4]; 6 g/kg)	MRT inf ([4]; 6 g/kg)	Tmax ([4]; 6 g/kg)	half-life ([4]; 6 g/kg)	AUC(0-inf) ([4]; 18 g/kg)	AUC(0-t) ([4]; 18 g/kg)	other results
OC[C@H]1O[C@@H](Oc2c(O)cc(O)cc2/C=C/c2ccc(O)cc2)[C@H](O)[C@@H](O)[C@@H]1O [TSG, 2,3,5,4′-teterahydroxystilbene-2-O-β-D-glucoside]	4,610 ± 1,430 nmol·h/L	4,460 ± 1,360 nmol·h/L	4290 nM	18.2 µM·h	45.5 µM·h	86.4 µM·h	114 µM·h	35.1 µM·h	68.7 µM·h	47.9 µM·h	7.59 µM·h	12.2 µM·h	2.46 µM·h	2.38 µM·h	1670 nM	3.86 ± 1.17 h	0.24 ± 0.15 h	6.53 ± 2.45 h	4.2 µM·h	4.04 µM·h	logP [2]: 0.10; AUC(0-t) [3, 10]: 6.42 µM·h; AUC(0-t) [3, 12]: 71.7 µM·h; AUC(0-t) ([3]; both, kidney, AUC0-t in the kidney, RPM extract 18 g/kg p.o., rat kidney, sampling 5, 15, 60 min): 86.4 µM·h; AUC(0-t) [3, 20]: 7.77 µM·h; time at which C max was exhibited ([4]; rat plasma): ≤ 20 min; Cmax ([4]; 18 g/kg): 3260 nM; MRT inf ([4]; 18 g/kg): 4.37 ± 0.91 h; half-life ([4]; 18 g/kg): 6.54 ± 2.02 h; cumulative excretion into bile [5]: 410 ± 55.4 nmol; dose excreted [6, 21]: 24.6%; dose excreted [6, 22]: 38.9%; dose excreted [6, 23]: 14.3%; cumulative excretion into feces [6, 24]: 2778 ± 349 nmol; cumulative excretion into urine [6, 25]: 1619 ± 208 nmol; Conclusion (dose-exposure relationship) [7, 26]: Nonlinear correlation; Conclusion (dose-exposure relationship) [7, 27]: Nonlinear correlation; Slope (90%CI) [7, 28]: 0.342 (0.204–0.479); Slope (90%CI) [7, 29]: 0.536 (0.422–0.649)
COc1cc(O)cc2c1C(=O)c1c(O)cc(CO)cc1C2=O [Questinol, questinol]	57.5 ± 9.45 nmol·h/L	47.3 ± 6.85 nmol·h/L	4 ± 0.673 nM	0.0169 µM·h	0.034 µM·h	0.0243 µM·h	0.0553 µM·h	0.0251 µM·h	0.0103 µM·h	0.0061 µM·h	0.0168 µM·h	0.0186 µM·h	0.027 ± 0.0228 µM·h	0.00861 ± 0.00169 µM·h	1.09 ± 0.317 nM	12.2 ± 2.93 h	3.5 ± 2.17 h	8 ± 2.01 h	0.0583 ± 0.0143 µM·h	0.0401 ± 0.00898 µM·h	MRT0-∞ [1]: 13.6 ± 4.21 h; T max [1]: 4.38 ± 4.03 h; t 1/2 [1]: 8.90 ± 2.70 h; Cmax ([4]; 18 g/kg): 3.54 ± 0.652 nM; MRT inf ([4]; 18 g/kg): 20.6 ± 13.5 h; Tmax ([4]; 18 g/kg): 1.83 ± 1.8 h; half-life ([4]; 18 g/kg): 14.4 ± 9.99 h; detection in bile [5]: not detected; dose excreted ([6]; urine and feces, recovery from the urine and feces, single p.o. RPM extract 18 g/kg, rats): 4.12%; cumulative excretion into feces [6, 24]: 0.566 ± 0.0666 nmol; detection in urine [6, 25]: not have been detected; Conclusion (dose-exposure relationship) [7, 26]: Nonlinear correlation; Conclusion (dose-exposure relationship) [7, 27]: Uncertainty of linear relationship; Slope (90%CI) [7, 28]: 0.551 (0.275–0.827); Slope (90%CI) [7, 29]: 0.774 (0.610–0.938)
COc1cc(O)c2c(c1)C(=O)c1cc(C)cc(O)c1C2=O [Physcion, physcion]																					Peff ([8]; colon): (7.45 ± 3.30) × 10^–3 cm/min; Peff ([8]; duodenum): (3.32 ± 1.50) × 10^–3 cm/min; Peff ([8]; ileum): (2.40 ± 0.58) × 10^–3 cm/min; Peff ([8]; jejunum): (2.30 ± 1.57) × 10^–3 cm/min; plasma concentrations ([4]; RPM extract 6, 18 and 36 g/kg p.o., rat plasma): too low to be detected
COc1cc(O[C@@H]2O[C@H](CO)[C@@H](O)[C@H](O)[C@H]2O)c2c(O)c(C(C)=O)c(C)cc2c1 [TG, torachrysone-8-O-glucoside]	53.0 ± 18.3 nmol·h/L	51.9 ± 18.1 nmol·h/L	45.8 ± 9.94 nM	0.438 µM·h	1.78 µM·h	0.845 µM·h	3.81 µM·h	0.438 µM·h	1.19 µM·h	1.46 µM·h	0.153 µM·h	0.38 µM·h	0.0166 ± 0.0109 µM·h	0.0158 ± 0.0106 µM·h	12.4 ± 2.66 nM	1.58 ± 0.77 h	0.19 ± 0.09 h	1.23 ± 0.58 h	0.0495 ± 0.0171 µM·h	0.048 ± 0.0172 µM·h	MRT0-∞ [1]: 2.10 ± 0.24 h; t 1/2 [1]: 2.00 ± 0.63 h; AUC(0-t) [3, 10]: 0.0185 µM·h; AUC(0-t) [3, 12]: 0.181 µM·h; AUC(0-t) [3, 20]: 0.0698 µM·h; time at which C max was exhibited ([4]; rat plasma): ≤ 20 min; Cmax ([4]; 18 g/kg): 37.3 ± 4.57 nM; MRT inf ([4]; 18 g/kg): 2.23 ± 0.3 h; Tmax ([4]; 18 g/kg): 0.11 ± 0.07 h; half-life ([4]; 18 g/kg): 1.9 ± 0.22 h; cumulative excretion into bile [5]: 8.96 ± 2.38 nmol; dose excreted [6, 21]: 27.9%; dose excreted [6, 22]: 45.5%; dose excreted [6, 23]: 17.6%; cumulative excretion into feces [6, 24]: 30.4 ± 5.73 nmol; cumulative excretion into urine [6, 25]: 19.1 ± 2.99 nmol; Conclusion (dose-exposure relationship) [7, 26]: Uncertainty of linear relationship; Slope (90%CI) [7, 28]: 0.720 (0.464–0.977); Slope (90%CI) [7, 29]: 0.756 (0.627–0.884)
